From paper PMC11101637, “Bioinformatics leading to conveniently accessible, helix enforcing, bicyclic ASX motif mimics (BAMMs)” (Nature Communications, 2024)
Numbered stars: 1 amine (or outer) side, 2 acyl side, 3 side chain; on linkers, the order of the positions; unused ones are H or OH. Bridge positions count the residues as written; N and C are the ends. Ends that are not written are not given here. Peptide text beside a SMILES is read from it. mXylylene = c1cc(C[*:1])cc(C[*:2])c1

Columns and labels:
circular dichroism = conditions: PBS; pH 7.4; 25 °C; 5-30 uM
[1] = CD spectroscopy: percent helicity and ellipticity ratio 222/208 nm; type: physicochemical; conditions: for % helicity: 5-30 μM peptide, three scans averaged, [θ]222/[θ]max
Method: Circular dichroism (CD) experiments
Concentrations of the stock solution were determined by […] absorption of Trp or 275 nm absorption of Tyr (and TMB, if present in peptides). Each sample was dissolved in 1x PBS (pH 7.4), 10% TFE/PBS or 20% TFE/PBS with the final concentration between 5 to 30 μM. CD spectra were acquired using circular dichroism spectrometer (Chirascan) equipped with a temperature controller using 1 mm cell at a scan speed of 0.5 nm/sec at indicated temperature. Each sample was scanned three times and the averaged spectrum was smoothed.
Calculation of percent helicity
For simplicity, ‘helicity’ or ‘helical’ in the following text all refers to α-type. For each peptide, mean residue ellipticities ([θ]/(c*n), c = concentration of the peptide, n = number of amino acids in the peptide) were used to calculate % helicity, which is an empirical indicator of peptide helicity. […] (n = number of amino acids in the peptide, T = 25.0 °C).

[2] = Amide H-D exchange study (NMR), protection factors; type: physicochemical; conditions: for H/D exchange experiment, per-residue value (Fig 5i): amide H-D exchange by NMR
Method: Lyophilized samples of peptides LDLL 12-mer and bicyclo 12-mer from the above experiments were dissolved in 600 µL of D2O/ TFE-d3 mixture (4:1) to initialize the H-D exchange. The pH of the solution was confirmed. Spectra were recorded on a preshimmed Bruker AVANCE 500 MHz spectrometer. The recorded temperature was 33 °C. The intensity changes for each amide proton were determined by monitoring either the NH peaks on 1D spectra or the cross-peaks between NH and RH on 2D TOCSY spectra when overlapping was severe. The peak intensity data was fit into one phase exponential equation to get the exchange rate constants using GraphPad Prism 6.0 program. The rate constants were input into Englander lab’s spreadsheet (https://hx2.med.upenn.edu/download.html) to calculate protection factor and stabilization energy.

[3] = CD in PBS buffer (pH 7.4, 10 mM), 25.0 °C, 1 mm cell

## Ac-VDAALLAAAKAAAAKAW-NH2 [VDLL]
Circular dichroism
  helicity: 48%
[1]; [3]
  % helicity: 48%

## Ac-FDAALLAAAKAAAAKAW-NH2 [FDLL]
Circular dichroism
  helicity: 53%
[1]; [3]
  % helicity: 53%

## Ac-LDAALFAAAKAAAAKAW-NH2 [LDLF]
Circular dichroism
  helicity: 83%
[1]; [3]
  % helicity: 83%

## C[C@H](NC(=O)[C@H](CCCCN)NC(=O)[C@H](C)NC(=O)[C@H](C)NC(=O)[C@H](C)NC(=O)[C@H](C)NC(=O)[C@@H]1CSCc2cccc(c2)CSC[C@H](NC(=O)[C@@H](N)Cc2c[nH]c3ccccc23)C(=O)N[C@@H](CC(=O)O)C(=O)N[C@@H](C)C(=O)N[C@@H](C)C(=O)N1)C(N)=O (H-WCDAACAAAAKA-NH2; linker 2-6 via mXylylene)
Circular dichroism
  helicity: 32%

## Ac-LDAALVAAAKAAAAKAW-NH2 [LDLV]
Circular dichroism
  helicity: 70%
[1]; [3]
  % helicity: 70%

## CSC[C@H](NC(=O)[C@H](C)NC(=O)[C@H](CCC(N)=O)NC(=O)[C@H](CC(=O)O)NC(=O)[C@@H](N)CSC)C(=O)N[C@@H](CSC)C(=O)N[C@@H](CC(C)C)C(=O)N[C@@H](CC(C)C)C(=O)N[C@@H](CCCNC(=N)N)C(=O)N[C@@H](C)C(=O)N[C@@H](CC(C)C)C(=O)N[C@@H](CC(=O)O)C(=O)N[C@@H](CCC(N)=O)C(=O)N[C@@H](Cc1ccc(O)cc1)C(N)=O [2m] (H-C(Me)DQAC(Me)C(Me)LLRALDQY-NH2; N-terminus and C-terminus assumed)
Circular dichroism
  helicity: 10%
[1]; CD in 10% TFE/PBS, 25 °C
  ellipticity ratio 222/208 nm: 0.44
  % helicity: 24%
[1]; [3]
  % helicity: 10%
[1]; CD in PBS, 25 °C
  ellipticity ratio 222/208 nm: 0.23

## Ac-AAAAKAAAAKAW-NH2 [AAKA 12-mer]
Circular dichroism
  helicity: 17%
[1]; CD in 10% TFE/PBS, 25 °C
  ellipticity ratio 222/208 nm: 0.47
  % helicity: 35%
[1]; [3]
  % helicity: 17%
[1]; CD in PBS, 25 °C
  ellipticity ratio 222/208 nm: 0.26

## Ac-LDAALLAAAKAAAAKAW-NH2 [LDLL]
Circular dichroism
  helicity: 93%
[1]; [3]
  % helicity: 93%

## Ac-LDAAFLAAAKAAAAKAW-NH2 [LDFL]
Circular dichroism
  helicity: 69%
[1]; [3]
  % helicity: 69%

## Ac-LDAALLAAAKAW-NH2 [LDLL 12-mer]
[1]; CD in 10% TFE/PBS, 25 °C
  ellipticity ratio 222/208 nm: 0.57
  % helicity: 43%
[1]; [3]
  % helicity: 28%
[1]; CD in PBS, 25 °C
  ellipticity ratio 222/208 nm: 0.39

## Ac-LDAALIAAAKAAAAKAW-NH2 [LDLI]
Circular dichroism
  helicity: 52%
[1]; [3]
  % helicity: 52%

## C[C@H](NC(=O)[C@H](CCCCN)NC(=O)[C@H](C)NC(=O)[C@H](C)NC(=O)[C@H](C)NC(=O)[C@@H]1CSCc2cc3cc(c2)CSC[C@H](NC(=O)[C@@H](N)Cc2c[nH]c4ccccc24)C(=O)N[C@@H](CC(=O)O)C(=O)N[C@@H](C)C(=O)N[C@@H](C)C(=O)N[C@@H](CSC3)C(=O)N1)C(N)=O [bicyclo 12-mer]
[2]; D2O/TFE-d3 (4:1), 33 °C, NMR 500 MHz
  protection factors (H/D exchange) around the capping region: significantly higher than for the linear LDLL 12-mer
[1]; CD in 10% TFE/PBS, 25 °C
  ellipticity ratio 222/208 nm: 1.21
  % helicity: 72%
[1]; [3]
  % helicity: 59%
[1]; CD in PBS, 25 °C
  ellipticity ratio 222/208 nm: 0.76

## Ac-LDAALAAAAKAAAAKAW-NH2 [LDLA]
Circular dichroism
  helicity: 39%
[1]; [3]
  % helicity: 39%

## Ac-LDAATLAAAKAAAAKAW-NH2 [LDTL]
Circular dichroism
  helicity: 63%
[1]; [3]
  % helicity: 63%

## Ac-ADAAAAAAAKAAAAKAW-NH2 [ADAA]
Circular dichroism
  helicity: 55%
[1]; [3]
  % helicity: 55%

## C[C@H](NC(=O)[C@H](CCCCN)NC(=O)[C@H](C)NC(=O)[C@H](C)NC(=O)[C@H](C)NC(=O)[C@@H]1CSCc2cc3cc(c2)CSC[C@H](NC(=O)[C@@H](N)Cc2c[nH]c4ccccc24)C(=O)N[C@@H](CC(=O)O)C(=O)N[C@@H](C)C(=O)N[C@@H](C)C(=O)N[C@@H](CSC3)C(=O)N1)C(N)=O [Bicyclo-short]
[2]; resi ID 3
  H/D exchange experiment, per-residue value (Fig 5i): 1.33
[2]; resi ID 4
  H/D exchange experiment, per-residue value (Fig 5i): 1.81
[2]; resi ID 5
  H/D exchange experiment, per-residue value (Fig 5i): 2.88
[2]; resi ID 6
  H/D exchange experiment, per-residue value (Fig 5i): 3.7
[2]; resi ID 7
  H/D exchange experiment, per-residue value (Fig 5i): 2.57
[2]; resi ID 8
  H/D exchange experiment, per-residue value (Fig 5i): 2.46
[2]; resi ID 9
  H/D exchange experiment, per-residue value (Fig 5i): 2.32
[2]; resi ID 10
  H/D exchange experiment, per-residue value (Fig 5i): 2.24

## Ac-LDAALLAAAKAW-NH2 [LDLL-short]
[2]; resi ID 1
  H/D exchange experiment, per-residue value (Fig 5i): 0.3
[2]; resi ID 3
  H/D exchange experiment, per-residue value (Fig 5i): 1.3
[2]; resi ID 4
  H/D exchange experiment, per-residue value (Fig 5i): 1.66
[2]; resi ID 5
  H/D exchange experiment, per-residue value (Fig 5i): 1.96
[2]; resi ID 6
  H/D exchange experiment, per-residue value (Fig 5i): 1.83
[2]; resi ID 7
  H/D exchange experiment, per-residue value (Fig 5i): 1.96
[2]; resi ID 9
  H/D exchange experiment, per-residue value (Fig 5i): 2.2
[2]; resi ID 10
  H/D exchange experiment, per-residue value (Fig 5i): 1.69
[2]; resi ID 11
  H/D exchange experiment, per-residue value (Fig 5i): 1.68

## C[C@H](NC(=O)[C@H](CCCCN)NC(=O)[C@H](C)NC(=O)[C@H](C)NC(=O)[C@H](C)NC(=O)[C@@H]1CSCc2cccc(c2)CSC[C@H](NC(=O)[C@@H](N)Cc2c[nH]c3ccccc23)C(=O)N[C@@H](CC(=O)O)C(=O)N[C@@H](C)C(=O)N[C@@H](C)C(=O)N[C@@H](C)C(=O)N1)C(N)=O (H-WCDAAACAAAKA-NH2; linker 2-7 via mXylylene)
Circular dichroism
  helicity: 34%

## Ac-AAAAKAAAAKAAAAKAW-NH2 [AAKA]
Circular dichroism
  helicity: 48%
[1]; [3]
  % helicity: 48%

## Ac-LDAAELAAAKAAAAKAW-NH2 [LDEL]
Circular dichroism
  helicity: 52%
[1]; [3]
  % helicity: 52%

## Ac-LDAAALAAAKAAAAKAW-NH2 [LDAL]
Circular dichroism
  helicity: 69%
[1]; [3]
  % helicity: 69%

## Ac-LDAALLAAAKAAAAKAAAAKAW-NH2 [LDLL 22-mer]
Circular dichroism
  helicity: 101%
[1]; [3]
  % helicity: 101%

## C[C@H](NC(=O)[C@H](CCCCN)NC(=O)[C@H](C)NC(=O)[C@H](C)NC(=O)[C@H](C)NC(=O)[C@@H]1CSCc2cc3cc(c2)CSC[C@H](NC(=O)[C@@H](N)Cc2c[nH]c4ccccc24)C(=O)N[C@@H](CC(=O)O)C(=O)N[C@@H](C)C(=O)N[C@@H](C)C(=O)N[C@@H](CSC3)C(=O)N1)C(N)=O
Circular dichroism
  helicity: 59%

## Ac-IDAALLAAAKAAAAKAW-NH2 [IDLL]
Circular dichroism
  helicity: 69%
[1]; [3]
  % helicity: 69%

## Ac-LDAASLAAAKAAAAKAW-NH2 [LDSL]
Circular dichroism
  helicity: 67%
[1]; [3]
  % helicity: 67%

## Ac-ADAALLAAAKAAAAKAW-NH2 [ADLL]
Circular dichroism
  helicity: 45%
[1]; [3]
  % helicity: 45%

## WCAAACCAAAKA (also: bicyclic or more (positions not given here)) [bicyclo-D/A 12-mer, bicyclo 12-mer with Asp Ncap replaced with Ala]
[1]; CD in PBS, relative to bicyclo 12-mer
  reduction of helicity on substitution of Asp Ncap by Ala: 49%

## Ac-AAAAKAAAAKAAAAKAAAAKAW-NH2 [AAKA 22-mer]
Circular dichroism
  helicity: 64%
[1]; [3]
  % helicity: 64%

## Ac-QVARQLAEIY-NH2 [1l]
Circular dichroism
  helicity: 16%
[1]; CD in 10% TFE/PBS, 25 °C
  ellipticity ratio 222/208 nm: 0.64
  % helicity: 20%
[1]; [3]
  % helicity: 16%
[1]; CD in PBS, 25 °C
  ellipticity ratio 222/208 nm: 0.48

## Ac-LDAALLAAAKAW-NH2
Circular dichroism
  helicity: 28%

## Ac-QAEELLRALDQY-NH2 [2l]
Circular dichroism
  helicity: 13%
[1]; CD in 10% TFE/PBS, 25 °C
  ellipticity ratio 222/208 nm: 0.53
  % helicity: 23%
[1]; [3]
  % helicity: 13%
[1]; CD in PBS, 25 °C
  ellipticity ratio 222/208 nm: 0.27

## Ac-LDAAQLAAAKAAAAKAW-NH2 [LDQL]
Circular dichroism
  helicity: 37%
[1]; [3]
  % helicity: 37%

## Ac-LAAALLAAAKAAAAKAW-NH2 [LALL]
Circular dichroism
  helicity: 45%
[1]; [3]
  % helicity: 45%
